Patent US20120028917A1, “Use Of N-(4-((3-(2-Amino-4-Pyrimidinyl)-2-Pyridinyl)Oxy)Phenyl)-4-(4-Methyl-2-Thienyl)-1-Phthalazinamine In The Treatment Of Antimitotic Agent Resistant Cancer” (Amgen Inc., priority 2009, published 2012)

Experiments:
[1] = tested on: MES-SA Dx5 xenograft; test: Xenograft tumor growth inhibition (Example 3); assay type: in vivo, athymic nude mice
Protocol: To investigate whether AMG 900-induced suppression of aurora kinase activity inhibits cell proliferation, the antiproliferative efficacy of AMG 900 was evaluated in-vivo in multiple human cancer xenograft models, including breast, colon, leukemia, lung, pancreatic, and uterine cancer models, grown in athymic nude mice. Mice were administered AMG 900 orally at 3.75, 7.5, or 15 mg/kg BID for 2 consecutive days per week or 3 mg/kg BID everyday for the duration of the study beginning when tumors were established. The reagents, solutions, equipment, formulation of AMG 900, tumor volume measurements and calculations were generally as described in Example 4 below.
The effect of AMG 900 was tested on the multidrug resistant cell line MES-SA Dx5 grown in vivo as a tumor xenograft. Mice were administered AMG 900 orally at 15 mg/kg BID for 2 consecutive days per week or 3.0 mg/kg BID everyday for the duration of the study. Dosing was initiated when tumors were established (10 days after tumor implantation).
MES-SA Dx5, multi-drug resistant, cells (2×10^6) were injected subcutaneously in the right flank of female athymic nude mice. Tumors were measured twice per week. Treatment began on day 10 when the tumors were ˜100 mm^3. […] P-values correspond to statistical difference between groups treated with vehicle and AMG 900 determined by RMANOVA followed by Dunnett's post-hoc test. […]

[2] = tested on: MDA-MB-231-Taxol-r; test: Cell cycle DNA content assay (flow cytometry); assay type: cell-based; conditions: Homo sapiens, 24 h, Breast, Paclitaxel-selected, read-out: EC50 @ 24 hours, ≧4N DNA content
Protocol: (§1) MDA-MB-231(F11)-luc parent and taxol-resistant cells were seeded at a density of 250,000 cells/well in a 12-well plate in 1 mL of in the appropriate media, in duplicates. The next day cells were treated with AMG 900 or taxol over a 10-point concentration range with a final DMSO concentration of 0.1% in taxol-free media. After 24 hours, cells were harvested with 1× trypsin-EDTA and transferred to PCR tubes. Cells were centrifuged at 2000 rpm for 4 minutes and the supernatant was aspirated. Cells were fixed in 200 μL of ice cold 90% methanol and stored at −20° C. for at least 24 hours. Fixed cells were centrifuged at 2000 rpm for 4 minutes to remove 90% methanol. Cells were washed with wash buffer and stained with 200 μL of propidium iodide (PI) for 30 minutes at 4° C. in the dark. An additional 400 μL of PI was added before data acquisition. Data was acquired and analyzed by flow cytometry (LSRII). A threshold gate was applied according to +4N (same as ≧4N) DNA content based on DMSO control and low/high drug-treated groups. The data was represented as percentage of control for +4N DNA content positive populations. The +4N DNA content cellular EC50 values were assigned using 4-parameter equation. […] Flow cytometric-based cell cycle analysis was performed to measure the percentage of ≧4N DNA content or SubG1 DNA content positive cells. The dose-response curves for AMG 900 represent the drug concentration plotted against the percentage of ≧4N DNA content positive cells. The dose-response curves for taxol represent the drug concentration plotted against the percentage of SubG1 DNA content positive cells. The EC50 values were calculated by 4-parameter fit model.

[3] = tested on: MDA-MB-231; test: Cell cycle DNA content assay (flow cytometry); assay type: cell-based; conditions: Homo sapiens, 24 h; MDA-MB-231, Breast, Parent line; read-out: EC50 @ 24 hours, ≧4N DNA content
Protocol: as §1

[4] = tested on: HCT116 AZD1152-resistant; test: Colony formation assay (FIG. 6-B); assay type: cell-based, human; conditions: HCT116 AZD1152-resistant; 48 hours treatment, re-plated drug-free
Protocol: Tumor cell lines were obtained from the American Type Culture Collection (ATCC) unless otherwise specified. The MDA-MB-231-PTX and NCI-H460-PTX cell lines were established by growing the cells in the presence of increasing concentrations of paclitaxel over a period of 6 months. The HCT116 AZD1152-resistant cell line was established by growing the cells in the presence of AZD1152 at 80 nmol/L. Tumor cells were treated with AMG 900, paclitaxel or AZD1152 (0.5, 5, 50 nmol/L) for 48 hours, washed twice with complete media, and cells were re-plated at a density of 5000 cells per well in drug-free complete media. Cells were grown until the DMSO control wells were confluent. Cells were stained with crystal violet dye (Sigma), washed with distilled water, and imaged using a digital scanner (Hewlett-Packard). Colony formation assay was performed with HCT116 cell lines (parental and AZD1152-resistant). Cells were treated with DMSO, AMG 900, AZD1152, or paclitaxel at the indicated concentrations for 48 hours and re-plated in complete media lacking the inhibitor. After the DMSO-treated cells reached confluence, the cells were stained with crystal violet and imaged (duplicate wells).

EC50 [2]: 1 nM
EC50 [3]: 1 nM
Structure (SMILES): Cc1csc(-c2nnc(Nc3ccc(Oc4ncccc4-c4ccnc(N)n4)cc3)c3ccccc23)c1 [AMG 900, N-(4-((3-(2-amino-4-pyrimidinyl)-2-pyridinyl)oxy)phenyl)-4-(4-methyl-2-thienyl)-1-phthalazinamine]
% TGI (tumor growth inhibition) ([1]; MES-SA Dx5, Uterine, oral BID, best of intermittent or continuous dose schedule): 73%
tumor growth vs vehicle control ([1]; MES-SA Dx5, 15 mg/kg BID 2 consecutive days per week and 3.0 mg/kg BID everyday, p<0.0001): statistically significant tumor growth inhibition
concentrations inhibiting colony formation [4]: ≥ 5 nmol/L
